Read-outs that look alike come from different tables or passages of the source.
Key:
[1] = cited from earlier work
[2] = cited from earlier work; remark: listed apart in the source
[3] = Mutarotation: angle of rotation over time after dissolving allulose in water (polarimeter); format: physicochemical; details: 23° C.; for angle of rotation: desalted water, DS about 26 wt.-%
Experimental: Crystalline allulose was dissolved in water (DS 26 wt.-%). Quickly afterwards, the sample was placed in a polarimeter and the angle of rotation was read off at regular intervals ([…], 23° C.). From this, the angle of rotation was then plotted over time (see FIG. 1). 74.30 g of water and 26.05 g of crystalline allulose were mixed. The mixture was briefly stirred with a stir bar until the allulose was completely dissolved. Then a sample was placed in the polarimeter and the angle of rotation of the same sample was measured at regular intervals. There were approximately 5 minutes between the addition of the allulose and the first measured value (0 min).
Mutarotation of solid allulose obtained in accordance with the present invention was compared to mutarotation of highly crystalline allulose. For this purpose, solutions at a dry substance content of about DS 26 wt.-% were prepared from powdery compositions each having a particle size within the range of from 100 to 200 μm (sieve fraction).
15.61 g of powdery crystalline allulose (comparative) of grain size 100-200 μm were dissolved at 23° C. in 47.6 g desalted water in a 500 mL beaker. The angle of rotation was measured over time with a polarimeter.
13.00 g of extruded allulose (inventive) of grain size 100-200 μm were dissolved at 23° C. in 37.07 g desalted water in a 500 mL beaker. The angle of rotation was measured over time with a polarimeter.
For the sake of better comparability, the specific angle of rotation [(° *ml)/(dm*g)] was calculated for each measured value. The results are visualized in FIG. 2.

[4] = Preliminary tests to estimate supersaturation and undercooling of carbohydrates in water; format: physicochemical
From the text: Therefore, preliminary tests were made in order to estimate supersaturation and overcooling of various carbohydrates in water under different conditions.

[5] = cited from earlier work; remark: listed apart in the source
[6] = mass fraction 70% prior to evaporation, temperature 150° C.
[7] = mass fraction 80% prior to evaporation, temperature 190° C.
[8] = in water, 13C NMR (du Penhoat et al.)
[9] = mass fraction 80%, temperature 149° C.
[10] = mass fraction 90%, temperature 58° C.

SMILES: OC[C@@]1(O)OC[C@@H](O)[C@@H](O)[C@H]1O [β-D-psicopyranose]
- Mutarotation [α] ([1]; in water): about −85 deg dm^−1 cm^3

SMILES: O=C(CO)C(O)C(O)C(O)CO [allulose, D-allulose]
- solubility ([2]; 25° C.): 291 g per 100 g water
- solubility in water ([2]; 25° C.): 291 g in 100 g of water
- solubility in water expressed as mass fraction ([2]; 25° C.): 74%
- solubility in water ([2]; 50° C.): 489 g in 100 g of water
- solubility in water expressed as mass fraction ([2]; 50° C.): 83%
- time until the angle of rotation remains constant (chiral species in solution equilibrated) ([3]; 26.05 g crystalline allulose in 74.30 g water, DS 26 wt.-%, FIG. 1): more than 1 hour
- supersaturation [4, 6]: −27%
- undercooling [4, 6]: −54K
- supersaturation [4, 7]: −19%
- undercooling [4, 7]: −94K
- rate constant k of development of open-chain carbonyl-form in solution (first-order) ([1]; absorbance at 280 nm after dissolution): 4.44 ms^−1
- equilibrium content of carbonyl-form ([1]; in solution): about 0.2%
- percent composition of anomeric forms: keto form ([5]; in D2O at 303.15 K): 0.2%
- percent composition of anomeric forms: α-furanose ([5]; in D2O at 303.15 K): 39%
- percent composition of anomeric forms: α-pyranose ([5]; in D2O at 303.15 K): 22%
- percent composition of anomeric forms: β-furanose ([5]; in D2O at 303.15 K): 15%
- percent composition of anomeric forms: β-pyranose ([5]; in D2O at 303.15 K): 24%
- equilibrium composition: α-furanose [5, 8]: 37%
- equilibrium composition: α-pyranose [5, 8]: ~26%
- equilibrium composition: β-furanose [5, 8]: ~11%
- equilibrium composition: β-pyranose [5, 8]: ~26%

SMILES: OC[C@H]1O[C@@](CO)(O[C@H]2O[C@H](CO)[C@@H](O)[C@H](O)[C@H]2O)[C@@H](O)[C@@H]1O [sucrose]
- supersaturation [4, 9]: −14%
- undercooling [4, 9]: 37K

SMILES: OC[C@H]1O[C@H](OC[C@H]2OC(O)(CO)[C@@H](O)[C@@H]2O)[C@H](O)[C@@H](O)[C@@H]1O (stereo partly drawn) [isomaltulose]
- supersaturation [4, 10]: 35%
- undercooling [4, 10]: 62K

SMILES: O=C(CO)C(O)C(O)C(O)CO (stereo not drawn) [comparative, allulose]
- angle of rotation ([3]; time 0 min): −33.4 °
- angle of rotation ([3]; time 0.5 min): −31.1 °
- angle of rotation ([3]; time 1 min): −29 °
- angle of rotation ([3]; time 1.5 min): −27 °
- angle of rotation ([3]; time 2 min): −25.1 °
- angle of rotation ([3]; time 2.5 min): −23.35 °
- angle of rotation ([3]; time 3 min): −21.7 °
- angle of rotation ([3]; time 3.5 min): −20.13 °
- angle of rotation ([3]; time 4 min): −18.71 °
- angle of rotation ([3]; time 4.5 min): −17.36 °
- angle of rotation ([3]; time 5 min): −16.1 °
- angle of rotation ([3]; time 5.5 min): −14.91 °
- angle of rotation ([3]; time 6 min): −13.8 °
- angle of rotation ([3]; time 6.5 min): −12.78 °
- angle of rotation ([3]; time 7 min): −11.81 °
- angle of rotation ([3]; time 7.5 min): −10.9 °
- angle of rotation ([3]; time 8 min): −10.05 °
- angle of rotation ([3]; time 8.5 min): −9.25 °
- angle of rotation ([3]; time 9 min): −8.51 °
- angle of rotation ([3]; time 9.5 min): −7.81 °
- angle of rotation ([3]; time 10 min): −7.18 °
- angle of rotation ([3]; time 10.5 min): −6.57 °
- angle of rotation ([3]; time 11 min): −6 °
- angle of rotation ([3]; time 11.5 min): −5.47 °
- angle of rotation ([3]; time 12 min): −4.98 °
- angle of rotation ([3]; time 12.5 min): −4.51 °
- angle of rotation ([3]; time 13 min): −4.08 °
- angle of rotation ([3]; time 13.5 min): −3.67 °
- angle of rotation ([3]; time 14 min): −3.29 °
- angle of rotation ([3]; time 14.5 min): −2.93 °
- angle of rotation ([3]; time 15 min): −2.6 °
- angle of rotation ([3]; time 15.5 min): −2.29 °
- angle of rotation ([3]; time 16 min): −2 °
- angle of rotation ([3]; time 16.5 min): −1.72 °
- angle of rotation ([3]; time 17 min): −1.47 °
- angle of rotation ([3]; time 17.5 min): −1.23 °
- angle of rotation ([3]; time 18 min): −1 °
- angle of rotation ([3]; time 18.5 min): −0.8 °
- angle of rotation ([3]; time 19 min): −0.6 °
- angle of rotation ([3]; time 19.5 min): −0.41 °
- angle of rotation ([3]; time 20 min): −0.24 °
- angle of rotation ([3]; time 20.5 min): −0.08 °
- angle of rotation ([3]; time 21 min): 0.07 °
- angle of rotation ([3]; time 21.5 min): 0.22 °
- angle of rotation ([3]; time 22 min): 0.35 °
- angle of rotation ([3]; time 22.5 min): 0.47 °
- angle of rotation ([3]; time 23 min): 0.59 °
- angle of rotation ([3]; time 23.5 min): 0.7 °
- angle of rotation ([3]; time 24 min): 0.8 °
- angle of rotation ([3]; time 24.5 min): 0.9 °
- angle of rotation ([3]; time 25 min): 0.99 °
- angle of rotation ([3]; time 25.5 min): 1.07 °
- angle of rotation ([3]; time 26 min): 1.15 °
- angle of rotation ([3]; time 26.5 min): 1.22 °
- angle of rotation ([3]; time 27 min): 1.29 °
- angle of rotation ([3]; time 27.5 min): 1.36 °
- angle of rotation ([3]; time 28 min): 1.42 °
- angle of rotation ([3]; time 28.5 min): 1.48 °
- angle of rotation ([3]; time 29 min): 1.53 °
- angle of rotation ([3]; time 29.5 min): 1.58 °
- angle of rotation ([3]; time 30 min): 1.63 °
- angle of rotation ([3]; time 35 min): 1.96 °
- angle of rotation ([3]; time 40 min): 2.13 °
- angle of rotation ([3]; time 45 min): 2.22 °
- angle of rotation ([3]; time 50 min): 2.26 °
- angle of rotation ([3]; time 55 min): 2.29 °
- angle of rotation ([3]; time 60 min): 2.30 °

From US20230312631A1, “EXTRUSION PROCESS FOR THE PREPARATION OF A SOLID ALLULOSE COMPOSITION” (SAVANNA INGREDIENTS GMBH, priority 2020, published 2023)
